The values below are quoted from earlier work in US20260248735A1, “A METHOD FOR PREPARING MICROPARTICLES FOR DRUG DELIVERY” (Danmarks Tekniske Universitet, priority 2023, published 2026).

For the series the following is noted: as characterised by BCS class.

As to calcitonin, the solubility entry is “high”.
